The results in this text go back to patent publication US4072760A, “Bronchospasmolytic phenylethanolamines” (Pharmacia AS, priority 1974, dated 1978).

Where two headings read alike, the source gives them in different places.

Data set [1] relates to dogs. Conditions: dog, in vivo. An excerpt: (§1) Compounds of the present invention are well tolerated, as appears from the table.
Data set [2] has as its system conscious guinea pigs. Nature of the data set: Bronchospasmolytic dose in conscious guinea pigs, acetylcholine aerosol as spasmogen (Wardell). Type of data set: in vivo. The note with it: pressurized aerosol of 1% acetylcholine, more active than salbutamol. As to the method:
(§2) The effective bronchospasmolytic doses of the two compounds were determined using a pressurized aerosol of a 1% acetylcholine solution as the spasmogen according to the method of […]. Pharmacol Exp. Therap. 1974, 189, 167-184 and the heart rate was determined according to Farmer et al. (Br. J. Pharmac. Chemotherap. 1968, 32, 193-200.

The subject of data set [3] is β2 -stimulation versus β1 -stimulation. Nature of the data set: Bronchial selectivity: heart rate increasing dose ("ED 100") divided by bronchospasmolytic dose (ED 50). Type of data set: in vivo. Conditions: heart rate ED 100 (mice, i.v.) / bronchospasmolytic ED 50 (guinea pig, i.v.). As to the method:
The ratio, heart rate increasing dose ("ED 100") divided by bronchospasmolytic dose (ED 50), is a measure of the degree of selectivity of the bronchospasmolytic action. This ratio was calculated for a number of the compounds of the invention and for some of the most relevant compounds of reference.

In data set [4] the test system is β1 -stimulation, heart rate mice. Put plainly: Heart rate increasing effect (β1 -stimulation) in pentobarbital anaesthetized mice. Type of data set: in vivo. Conditions: Mus musculus, iv, dose giving an increase in heart rate of 100 beats/min, as free base. As to the method:
An especially valuable feature of the present invention is that typical and preferred representative of the compounds of the invention show a high bronchial selectivity (ratio of bronchospasmolytic activity to heart rate increasing effect) as compared to existing well-known broncholytics. […] The ratio, heart rate increasing dose ("ED 100") divided by bronchospasmolytic dose (ED 50), is a measure of the degree of selectivity of the bronchospasmolytic action. This ratio was calculated for a number of the compounds of the invention and for some of the most relevant compounds of reference.

The test system of data set [5] is β-stimulation of the skeletal muscles. Put plainly: Tremor-inducing activity (β-stimulation of the skeletal muscles) compared to bronchospasmolytic activity in cats (Bowman and Nott). Format: in vivo. As for the experimental part:
For a few of the compounds of the invention, the tremor-inducing activity (β-stimulation of the skeletal muscles) was determined in cats (in accordance with the technique of Bowman, W. C. and Nott, M. W.: Actions of some sympathomimetic bronchodilator and beta-adrenoceptor blocking drugs on contractions of the cat soleus muscle, Brit. J. Pharmac., 1970, 38, 37-49) and compared to the bronchospasmolytic activity in the same species.

On the set-up of data set [6]: species or system rate. Conditions: in vivo.
From the text: as §1

Data set [7] deals with conscious guinea pigs. Put plainly: Heart rate in conscious guinea pigs (Farmer et al.). Type of data set: in vivo. As to the method:
as §2

The nature of data set [8]: in vivo. Conditions: mouse.
From the text: Furthermore the acute toxicity in mice after intraveneous and oral administration is given.
The subject of data set [9] is β2 -stimulation, lungs guinea pig. Put plainly: Bronchospasmolytic effect (β2 -stimulation), Konzett-Rossler technique in anaesthetized guinea pig lungs. Type of data set: in vivo. Conditions: Cavia porcellus, doses as free base of the racemic compound.

As for `COc1ccc(CNc2cc(C(O)CNC(C)(C)C)ccc2O)cc1.Cl` (stereo not drawn) [3-(4-Methoxybenzylamino)-4-hydroxy-α-(tert.butylaminomethyl)-benzylalcohol hydrochloride], in data set [1], the “acute intravenous and oral toxicity test: tolerability” value is on record as “good tolerability”. The “two week tolerance test in dogs: tolerability” value in [1] was “good tolerability”. In addition, the “broncholytic activity relative to salbutamol” value in data set [2] was found to be 10 times. For the same compound, in data set [3], the “Ratio "ED 100"/ED 50” value amounted to 33. In [4], this compound had an ED (increase of 100 beats/min) of 0.1 mg/kg. Also, the “ratio between bronchospasmolytic dose and tremor-inducing dose, compared with salbutamol” value in data set [5] is on record as “a better ratio than salbutamol”. The “three month toxicity test: toxic reactions” value in data set [6] is listed as “no toxic reactions”. Moreover, the “heart rate stimulating effect compared with salbutamol” value in data set [7] is listed as “the heart rate stimulating effect was the same”. The results for the LD50 in data set [8] (iv) and in data set [8] (po) were 20 mg/kg and 300 mg/kg, respectively. The ED50 in data set [9] (i.d. = intraduodenally, read-out: β2 -stimulation lungs guinea pig ED 50 i.d.) came out at 1 mg/kg; in data set [9] (iv, read-out: β2 -stimulation lungs guinea pig ED 50 i.v.), 0.003 mg/kg.
